Measured values taken from patent US7294496B1, “Cloned human lysophospholipase” (The Regents of the University of California, priority 2000, dated 2007).
Where two headings read alike, the source gives them in different places.

Key:
[1] = target: T1, human recombinant LysoPLA (Homo sapiens, UniProt O75608, F152L); type: biochemical
T1 construct: made in house; host or cells: E. coli BL21(DE3)

[2] = target: mouse LysoPLA (Mus musculus, UniProt P97823); assay: Inhibition of mouse LysoPLA; type: biochemical
Chain of mouse LysoPLA (P97823 whole entry): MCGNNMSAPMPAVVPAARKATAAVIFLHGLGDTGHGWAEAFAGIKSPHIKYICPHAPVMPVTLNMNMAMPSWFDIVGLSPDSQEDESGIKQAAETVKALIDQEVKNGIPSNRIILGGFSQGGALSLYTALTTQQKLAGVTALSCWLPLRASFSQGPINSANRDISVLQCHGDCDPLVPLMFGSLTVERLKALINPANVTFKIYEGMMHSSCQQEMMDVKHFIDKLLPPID
Description: Various concentrations of each inhibitor (BioMol) were prepared in DMSO. 5 μl of each inhibitor was added to 480 μl of LysoPC substrate (125 μM Ly-soPC in the assay buffer). Enzyme (either mouse or human PLA) was added to the substrate-inhibitor mixture to start the reaction, which was incubated at 40° C. for 30 min. Control experiments were performed with the same amount of enzyme with 5 μl DMSO in the incubation mixture. The reversibility of the inhibition was tested by pre-incubation of the enzyme in the presence or absence of the inhibitor, followed by overnight dialysis in the assay buffer. The recovery of the enzyme activity as a function of time was then followed. Each data point represents an average of duplicates.

[3] = mouse enzyme, 125 μM LysoPC, similar results as human enzyme

T1 sequence (O75608 whole entry F152L): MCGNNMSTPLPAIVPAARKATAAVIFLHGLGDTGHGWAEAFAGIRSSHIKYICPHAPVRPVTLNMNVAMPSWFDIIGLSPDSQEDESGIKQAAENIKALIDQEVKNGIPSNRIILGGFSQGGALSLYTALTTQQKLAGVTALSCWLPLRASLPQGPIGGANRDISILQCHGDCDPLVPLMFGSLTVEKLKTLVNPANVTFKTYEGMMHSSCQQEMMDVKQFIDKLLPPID

Compound	inhibition of LysoPLA activity (in words) [1]	inhibition of LysoPLA activity (in words) [2]	inhibition of LysoPLA activity (in words) ([1]; human enzyme, 125 μM LysoPC)	inhibition of LysoPLA activity (in words) [2, 3]
CCCCCCCCCCCCCCCCOC[C@@H](O)COP(=O)([O-])OCC[N+](C)(C)C [LysoPAF]	not a good inhibitor	not a good inhibitor		
CCCCCCCCCCCCCCCC(=O)C(F)(F)F [PACOCF3, palmitoyl tri£uoromethyl ketone]			neither of them inhibited the LysoPLA activity well	neither of them inhibited the LysoPLA activity well
O=C1O/C(=C/Br)CCC1c1cccc2ccccc12 (stereo not drawn) [BEL, bromoenol lactone]			neither of them inhibited the LysoPLA activity well	neither of them inhibited the LysoPLA activity well
